Measured values: US12569500B2, “Combination comprising tricycle compound and use thereof in preparation of medicament for treating HBV” (FUJIAN AKEYLINK BIOTECHNOLOGY CO., LTD., priority 2020, dated 2026)
Counter-ions that a name gives are not always drawn.

How the values were obtained:
Type in all cases: cell-based
[1] = system: HBsAg; assay: Single agent anti-HBV activity, HBsAg in supernatant by ELISA, HepG2.2.15 cells; conditions: Hepatitis B virus, HepG2.2.15, 192 h, read-out: HBsAg EC50
Procedure: (§1) Cell line: HepG2.2.15 cells are constructed and provided by WuXi AppTec. The cell culture medium is DMEM/F12 medium supplemented with 2% fetal bovine serum, 2 mM glutamine, 1×non-essential amino acids, 100 U/mL penicillin and 100 µg/mL streptomycin.
(§2) 2.1.1 On the first day, HepG2.2.15 cells were seeded into a 96-well cell culture plate at a density of 60,000 cells/well, and then the cells were cultured overnight at 5% CO2 and 37° C. On the second day, the compound 1 and the compound of formula (IIb) and the compound of formula (IIIb) were diluted and added to a 96-well plate. Each combination was a three-fold plate. The cells were cultured under 5% CO2 and 37° C. for 3 days. On the 5th day, a new culture medium containing the compound was replaced, and the supernatant was collected on the 8th day. The HBsAg in the supernatant was detected by ELISA, and the DNA in the supernatant was extracted at the same time, and the content of HBV DNA in the supernatant was detected by quantitative PCR. After collecting the cell supernatant, add CellTiter-Glo to detect cell viability.

[2] = system: HBV; assay: Single agent anti-HBV activity, HBV DNA in supernatant by quantitative PCR, HepG2.2.15 cells; conditions: Hepatitis B virus, 192 h, day 8
Procedure: as §1, §2

[3] = Single agent cytotoxicity, CellTiter-Glo; conditions: human, HepG2.2.15 cells
Procedure: as §1, §2

[4] = system: HepG2.2.15 cells; assay: Cytotoxicity of the compounds in combination, CellTiter Glo
Procedure: as §1
2.2.1 On the first day, HepG2.2.15 cells were seeded into a 96-well cell culture plate at a density of 60,000 cells/well, and then the cells were cultured overnight at 5% CO2 and 37° C. On the second day, different concentrations of compounds were added to treat the cells. Compounds were diluted in gradients, 7×7 concentration combinations, and 3 replicate plates were tested in parallel. The compound concentration tested for joint activity is based on the EC50 value of each compound. The 7 concentration gradients are approximately: 2×, 1×, ½×, ¼×, ⅛×, 1/16× and 1/32×EC50. The compound concentration of the combined activity test experiment is shown in Table 8, and the combination drug arrangement is shown in Table 9. On the 5th day, replace the fresh culture medium containing the compound. On the 8th day, the culture supernatant was collected, DNA was extracted, and the content of HBV DNA was detected by quantitative PCR. At the same time, CellTiter Glo reagent was used to detect cell viability and MacSynergy software was used to analyze the combined effect of the two drugs.

[5] = system: HepG2.2.15 cells; assay: CellTiter-Glo cytotoxicity of compound 1 / TDF combination
Procedure: 1.1 Day 1, HepG2.2.15 cells were seeded into a 96-well cell culture plate at a density of 40,000 cells/well, and then the cells were cultured overnight at 5% CO2 and 37° C.
1.2 Day 2, the compound 1 and TDF were combined with 7 different concentrations (selected about 8×, 4×, 2×, 1×, 0.5×, 0.25×, 0.125×EC50 concentration gradient) for orthogonal proportioning, and added to 96-well plate, each combination is 3 double plates, and the final concentration of DMSO is 0.5%.
1.3 Day 5, the cell supernatant was discarded, a fresh medium containing the compound was added, and the cells were cultured under 5% CO2, 37° C. for 3 days. On the 8th day, the supernatant from the cell plate treated with the compound was extracted according to the QIAamp 96 DNA Blood Kit (12) instruction.
MacSynegy software (Prichard et al., 1990) was used to process the HBV DNA copy number test data and analyze the effect parameters of compound 1 and TDF in combination. The CellTiter-Glo kit was used to detect the cytotoxicity of the compounds to HepG2.2.15 cells. According to the kit instructions, use a multifunctional microplate reader to detect the chemiluminescence intensity (RLU) of each cell well.

## COCCCOc1cc2c(cc1OC)-c1cc(=O)c(C(=O)O)cn1[C@H](C(C)(C)C)CO2 [Compound of formula (IIb)]
[1]
  EC50: 4.9 nM
[2]
  EC50: 1.52 nM
[3]
  CC50 at 6 days: > 1000 nM
[4]; Compound 1 0 nM + formula (IIb) 0.09375 nM
  average cell viability percentage: 101.23%
[4]; Compound 1 0 nM + formula (IIb) 0.1875 nM
  average cell viability percentage: 101.98%
[4]; Compound 1 0 nM + formula (IIb) 0.375 nM
  average cell viability percentage: 102.39%
[4]; Compound 1 0 nM + formula (IIb) 0.75 nM
  average cell viability percentage: 105.36%
[4]; Compound 1 0 nM + formula (IIb) 1.5 nM
  average cell viability percentage: 104.15%
[4]; Compound 1 0 nM + formula (IIb) 3 nM
  average cell viability percentage: 102.61%
[4]; Compound 1 0 nM + formula (IIb) 6 nM
  average cell viability percentage: 111.27%

## COCCCOc1cc2c(cc1OC)-c1cc(=O)c(C(=O)O)cn1[C@H](c1cccs1)O2 [Compound of formula (IIIb)]
[1]
  EC50: 0.91 nM
[2]
  EC50: 0.78 nM
[3]
  CC50 at 6 days: > 50 nM
[4]; Compound 1 0 nM + formula (IIIb) 0.01875 nM
  average cell viability percentage: 103.45%
[4]; Compound 1 0 nM + formula (IIIb) 0.0375 nM
  average cell viability percentage: 103.81%
[4]; Compound 1 0 nM + formula (IIIb) 0.075 nM
  average cell viability percentage: 105.64%
[4]; Compound 1 0 nM + formula (IIIb) 0.15 nM
  average cell viability percentage: 105.68%
[4]; Compound 1 0 nM + formula (IIIb) 0.3 nM
  average cell viability percentage: 103.14%
[4]; Compound 1 0 nM + formula (IIIb) 0.6 nM
  average cell viability percentage: 103.50%
[4]; Compound 1 0 nM + formula (IIIb) 1.2 nM
  average cell viability percentage: 112.02%

## CC(C)OC(=O)OCOP(=O)(CO[C@H](C)Cn1cnc2c(N)ncnc21)OCOC(=O)OC(C)C [TDF, tenofovir disoproxil fumarate, reference compound]
[5]; Compound 1 0 nM + TDF 1 nM
  average cell viability percentage: 103.1%
[5]; Compound 1 0 nM + TDF 2 nM
  average cell viability percentage: 101.1%
[5]; Compound 1 0 nM + TDF 4 nM
  average cell viability percentage: 103.8%
[5]; Compound 1 0 nM + TDF 8 nM
  average cell viability percentage: 116.6%
[5]; Compound 1 0 nM + TDF 16 nM
  average cell viability percentage: 111.4%
[5]; Compound 1 0 nM + TDF 32 nM
  average cell viability percentage: 111 ± 7.3%
[5]; Compound 1 0 nM + TDF 64 nM
  average cell viability percentage: 127 ± 14%
